The test system of one assay is 282377-053-R-J1-PDC complex spheroids, viability. The assay can be described thus: Anticancer human tumor 282377-053-R-J1-PDC patient-derived colon adenocarcinoma cell line growth inhibition [GQUAD]. The following applies: second compound 0.0316 µM; first compound 3.16 µM; hits give low values. Put shortly:
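Multi-cell-type spheroids of tumor cells with HUVEC and mesenchymal stem cells, treated with drug combinations. Concentrations descend in half-log steps from near clinical Cmax, or from 10 microM where Cmax is unknown; viability read-out.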
As to `CC1COCCN1c1cc(-c2ccnn2C)c2ccnc(-c3ccn[nH]3)c2n1` (stereo unspecified) + Cc1cnc(CNC(=O)c2c(=O)c3ccc(N4CCCN(C)CC4)nc3n3c2sc2ccccc23)cn1, the viability, T/C was 24.1%.
Same read-out and setting: next, `CC1COCCN1c1cc(C2(S(C)(=N)=O)CC2)nc(-c2ccnc3[nH]ccc23)n1` (stereo unspecified) + Cc1cnc(CNC(=O)c2c(=O)c3ccc(N4CCCN(C)CC4)nc3n3c2sc2ccccc23)cn1: 61.1%; `COc1ccc([C@@H](O)c2cc(-c3ncnc4cc(N5CCOCC5)ccc34)c(F)cc2Cl)nn1` + Cc1cnc(CNC(=O)c2c(=O)c3ccc(N4CCCN(C)CC4)nc3n3c2sc2ccccc23)cn1: 73.6%.

Staying with this assay, now noted: second compound 0.0316 µM; first compound 10 µM; hits give low values.
As to `C=CCn1c(=O)c2cnc(Nc3ccc(N4CCN(C)CC4)cc3)nc2n1-c1cccc(C(C)(C)O)n1` + Cc1[nH]c2ccc(F)cc2c1-c1nc2c3cccnc3c3ncccc3c2[nH]1, the viability, T/C was 15.3%.
On to `COc1ncnc(C2CC2)c1-c1ncc2cnn(Cc3ccc(-c4nc(C(F)(F)F)cn4C(C)C)cc3)c2n1` + Cc1[nH]c2ccc(F)cc2c1-c1nc2c3cccnc3c3ncccc3c2[nH]1, for which the viability, T/C was 5.07%.
On the same count and under the same terms, next, `CC1COCCN1c1cc(-c2ccnn2C)c2ccnc(-c3ccn[nH]3)c2n1` (stereo unspecified) + Cc1cnc(CNC(=O)c2c(=O)c3ccc(N4CCCN(C)CC4)nc3n3c2sc2ccccc23)cn1: 21.2%; `CC1COCCN1c1cc(C2(S(C)(=N)=O)CC2)nc(-c2ccnc3[nH]ccc23)n1` (stereo unspecified) + Cc1cnc(CNC(=O)c2c(=O)c3ccc(N4CCCN(C)CC4)nc3n3c2sc2ccccc23)cn1: 50.6%; `COc1ccc([C@@H](O)c2cc(-c3ncnc4cc(N5CCOCC5)ccc34)c(F)cc2Cl)nn1` + Cc1cnc(CNC(=O)c2c(=O)c3ccc(N4CCCN(C)CC4)nc3n3c2sc2ccccc23)cn1: 72%.

The assay is the same for the next values; noted with them: second compound 0.1 µM; first compound 0.0316 µM; hits give low values.
As to `C=CCn1c(=O)c2cnc(Nc3ccc(N4CCN(C)CC4)cc3)nc2n1-c1cccc(C(C)(C)O)n1` + Cc1[nH]c2ccc(F)cc2c1-c1nc2c3cccnc3c3ncccc3c2[nH]1, the viability, T/C was 80.2%.
For `COc1ncnc(C2CC2)c1-c1ncc2cnn(Cc3ccc(-c4nc(C(F)(F)F)cn4C(C)C)cc3)c2n1` + Cc1[nH]c2ccc(F)cc2c1-c1nc2c3cccnc3c3ncccc3c2[nH]1, the viability, T/C is 88.5%.
On the same count and under the same terms, then `CC1COCCN1c1cc(-c2ccnn2C)c2ccnc(-c3ccn[nH]3)c2n1` (stereo unspecified) + Cc1cnc(CNC(=O)c2c(=O)c3ccc(N4CCCN(C)CC4)nc3n3c2sc2ccccc23)cn1, with 65.8%; and `CC1COCCN1c1cc(C2(S(C)(=N)=O)CC2)nc(-c2ccnc3[nH]ccc23)n1` (stereo unspecified) + Cc1cnc(CNC(=O)c2c(=O)c3ccc(N4CCCN(C)CC4)nc3n3c2sc2ccccc23)cn1, with 99.5%; and `COc1ccc([C@@H](O)c2cc(-c3ncnc4cc(N5CCOCC5)ccc34)c(F)cc2Cl)nn1` + Cc1cnc(CNC(=O)c2c(=O)c3ccc(N4CCCN(C)CC4)nc3n3c2sc2ccccc23)cn1, with 117%.

Still in this assay, the particulars now being: second compound 0.1 µM; first compound 0.1 µM; hits give low values.
As to `C=CCn1c(=O)c2cnc(Nc3ccc(N4CCN(C)CC4)cc3)nc2n1-c1cccc(C(C)(C)O)n1` + Cc1[nH]c2ccc(F)cc2c1-c1nc2c3cccnc3c3ncccc3c2[nH]1, the viability, T/C was 65.2%.
On the same count and under the same terms, then `COc1ncnc(C2CC2)c1-c1ncc2cnn(Cc3ccc(-c4nc(C(F)(F)F)cn4C(C)C)cc3)c2n1` + Cc1[nH]c2ccc(F)cc2c1-c1nc2c3cccnc3c3ncccc3c2[nH]1, with 107%.
Turning to `CC1COCCN1c1cc(-c2ccnn2C)c2ccnc(-c3ccn[nH]3)c2n1` (stereo unspecified) + Cc1cnc(CNC(=O)c2c(=O)c3ccc(N4CCCN(C)CC4)nc3n3c2sc2ccccc23)cn1, the viability, T/C is 43.5%.
The same measure, in the same setting: next, `CC1COCCN1c1cc(C2(S(C)(=N)=O)CC2)nc(-c2ccnc3[nH]ccc23)n1` (stereo unspecified) + Cc1cnc(CNC(=O)c2c(=O)c3ccc(N4CCCN(C)CC4)nc3n3c2sc2ccccc23)cn1: 115%; `COc1ccc([C@@H](O)c2cc(-c3ncnc4cc(N5CCOCC5)ccc34)c(F)cc2Cl)nn1` + Cc1cnc(CNC(=O)c2c(=O)c3ccc(N4CCCN(C)CC4)nc3n3c2sc2ccccc23)cn1: 113%.

Still in this assay, the particulars now being: second compound 0.1 µM; first compound 0.316 µM; hits give low values.
`C=CCn1c(=O)c2cnc(Nc3ccc(N4CCN(C)CC4)cc3)nc2n1-c1cccc(C(C)(C)O)n1` + Cc1[nH]c2ccc(F)cc2c1-c1nc2c3cccnc3c3ncccc3c2[nH]1: the viability, T/C is 79.8%.
`COc1ncnc(C2CC2)c1-c1ncc2cnn(Cc3ccc(-c4nc(C(F)(F)F)cn4C(C)C)cc3)c2n1` + Cc1[nH]c2ccc(F)cc2c1-c1nc2c3cccnc3c3ncccc3c2[nH]1: the viability, T/C is 114%.
The same measure, in the same setting: then `CC1COCCN1c1cc(-c2ccnn2C)c2ccnc(-c3ccn[nH]3)c2n1` (stereo unspecified) + Cc1cnc(CNC(=O)c2c(=O)c3ccc(N4CCCN(C)CC4)nc3n3c2sc2ccccc23)cn1, with 34.4%; and `CC1COCCN1c1cc(C2(S(C)(=N)=O)CC2)nc(-c2ccnc3[nH]ccc23)n1` (stereo unspecified) + Cc1cnc(CNC(=O)c2c(=O)c3ccc(N4CCCN(C)CC4)nc3n3c2sc2ccccc23)cn1, with 94.4%; and `COc1ccc([C@@H](O)c2cc(-c3ncnc4cc(N5CCOCC5)ccc34)c(F)cc2Cl)nn1` + Cc1cnc(CNC(=O)c2c(=O)c3ccc(N4CCCN(C)CC4)nc3n3c2sc2ccccc23)cn1, with 93.8%.

Staying with this assay, now noted: second compound 0.1 µM; first compound 1 µM; hits give low values.
`C=CCn1c(=O)c2cnc(Nc3ccc(N4CCN(C)CC4)cc3)nc2n1-c1cccc(C(C)(C)O)n1` + Cc1[nH]c2ccc(F)cc2c1-c1nc2c3cccnc3c3ncccc3c2[nH]1: the viability, T/C was 62.2%.
On the same count and under the same terms, then `COc1ncnc(C2CC2)c1-c1ncc2cnn(Cc3ccc(-c4nc(C(F)(F)F)cn4C(C)C)cc3)c2n1` + Cc1[nH]c2ccc(F)cc2c1-c1nc2c3cccnc3c3ncccc3c2[nH]1, with 110%; and `CC1COCCN1c1cc(-c2ccnn2C)c2ccnc(-c3ccn[nH]3)c2n1` (stereo unspecified) + Cc1cnc(CNC(=O)c2c(=O)c3ccc(N4CCCN(C)CC4)nc3n3c2sc2ccccc23)cn1, with 25.5%.

The values are drawn from PubChem BioAssay AID2060501 (Molecular Pharmacology Branch, DTP, NCI, 2025).
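Further: spheroids exposed to compounds for 7 days before readout; percent of vehicle DMSO control viability with 100% = untreated-like growth.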
